The structures appear in SMILES notation.

The target of this assay is T1, Recombinant human GR (Homo sapiens, UniProt P04150).
T1 construct: purchased Invitrogen P2816
T1 sequence (P04150 1-777): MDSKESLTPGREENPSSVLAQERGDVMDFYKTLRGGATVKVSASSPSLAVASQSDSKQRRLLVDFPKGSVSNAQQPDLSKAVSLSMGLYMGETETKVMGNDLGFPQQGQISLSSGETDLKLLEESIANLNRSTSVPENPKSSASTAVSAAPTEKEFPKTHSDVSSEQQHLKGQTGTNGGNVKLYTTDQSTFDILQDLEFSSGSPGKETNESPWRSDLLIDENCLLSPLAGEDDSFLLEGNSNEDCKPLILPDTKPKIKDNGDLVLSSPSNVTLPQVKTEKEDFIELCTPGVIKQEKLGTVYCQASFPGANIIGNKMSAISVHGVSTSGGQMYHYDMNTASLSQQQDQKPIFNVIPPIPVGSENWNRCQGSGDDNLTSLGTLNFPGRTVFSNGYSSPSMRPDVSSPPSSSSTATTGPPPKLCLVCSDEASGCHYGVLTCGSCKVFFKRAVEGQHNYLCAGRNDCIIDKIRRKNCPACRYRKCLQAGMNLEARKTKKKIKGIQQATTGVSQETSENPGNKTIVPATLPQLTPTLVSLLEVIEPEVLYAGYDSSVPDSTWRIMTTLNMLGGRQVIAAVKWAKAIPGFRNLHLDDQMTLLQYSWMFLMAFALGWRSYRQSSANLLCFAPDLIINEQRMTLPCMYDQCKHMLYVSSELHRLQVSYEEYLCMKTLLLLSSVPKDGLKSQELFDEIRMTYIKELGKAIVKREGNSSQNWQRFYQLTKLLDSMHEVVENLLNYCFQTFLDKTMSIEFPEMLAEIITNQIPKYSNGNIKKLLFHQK
Description: Evaluation test for binding activity to glucocorticoid receptor: receptor competitor assay by fluorescence polarization (Invitrogen GR competitor assay kit, cat No. P2816). The note with it: 20 μM test compound solution, 10 μL per well plus 5 μL 4×GS1 and 5 μL 4×GR solution; room temperature 2 to 4 hours; a ratio of 100% or more is indicated by 100%. Here is the method:
A detailed explanation of this matter will be described in the section of “Pharmacological Test” in Examples described below. In order to find the usefulness of the present compound as a pharmaceutical, a glucocorticoid receptor competitor assay was carried out by a fluorescence polarization method by using a glucocorticoid receptor competitor assay kit (manufactured by Invitrogen, cat No. P2816) to study the glucocorticoid receptor binding activity of the present compound.
1. Evaluation Test for Binding Activity to Glucocorticoid Receptor (hereinafter referred to as “GR”)
In order to evaluate a binding activity to GR, a receptor competitor assay was carried out by a fluorescence polarization method. In the assay, a GR competitor assay kit (manufactured by Invitrogen, cat No. P2816) was used, and a procedure was carried out according to the protocol attached to the kit. Hereinafter, the specific method will be described.
(Preparation of Reagents)
GR screening buffer: A buffer containing 10 mM potassium phosphate (pH 7.4), 20 mM sodium molybdate (Na2MoO4), 0.1 mM ethylene diamine tetraacetic acid (EDTA), 5 mM dithiothreitol (DTT), 0.1 mM stabilizing peptide and 2% dimethylsulfoxide was prepared.
4×GS1 solution: Fluormone™ GS1, which is a fluorescent glucocorticoid ligand, was diluted with GR screening buffer, whereby a 4 nM solution was prepared.
4×GR solution: Recombinant human GR was diluted with GR screening buffer, whereby a 16 nM solution was prepared.
(Preparation of Test Compound Solution)
After a test compound was dissolved in dimethylsulfoxide, the resulting solution was diluted with GR screening buffer, whereby a 20 μM test compound solution was prepared.
(Test Method and Measurement Method)
1) The test compound solution was added in an amount of 10 μL into each well of a 384-well plate, and then, 4×GS1 solution and 4×GR solution were added in an amount of 5 μL into each well, respectively.
2) The plate was incubated in a dark place at room temperature for 2 to 4 hours.
3) By using a multimode plate reader, Analyst™ HT (manufactured by LJL Biosystems), fluorescence polarization of each well was measured. As the blank, a well containing GR screening buffer in place of the test compound and 4×GS1 solution was used.
4) The same procedure as that in the above 1) to 3) was carried out except that GR screening buffer was used in place of the test compound solution, and the obtained result was taken as the negative control.
5) The same procedure as that in the above 1) to 3) was carried out except that 2 mM dexamethasone was used in place of the test compound solution, and the obtained result was taken as the positive control.
(Calculation Equation of GR Binding Ratio)
A GR binding ratio (%) was calculated from the following equation. GR binding ratio(%)=100×[1−(fluorescence polarization of test compound solution−fluorescence polarization of positive control solution)/(fluorescence polarization of negative control solution−fluorescence polarization of positive control solution)] (Test Results and Discussion)
With `COc1cc(OC(=O)c2cccnc2C)ccc1-c1ccc2c(c1CNc1cc(F)ccc1C)C(C)=CC(C)(C)N2` [Compound 1-38, 5-(5-Fluoro-2-methylphenylaminomethyl)-6-[2-methoxy-4-(2-methylpyridin-3-ylcarbonyloxy)phenyl]-2,2,4-trimethyl-1,2-dihydroquinoline], the inhibition at 20 µM (stock) turned out to be 100%. On to `COc1ccccc1NCc1c(-c2ccc(OC(=O)c3sccc3Cl)cc2OC)ccc2c1C(C)=CC(C)(C)N2` [Compound 1-28, 6-[4-(3-Chlorothiophen-2-ylcarbonyloxy)-2-methoxyphenyl]-5-(2-methoxyphenylaminomethyl)-2,2,4-trimethyl-1,2-dihydroquinoline], for which the inhibition at 20 µM (stock) came to 88%. As for `COC(=O)c1cccc(C(=O)Oc2ccc(-c3ccc4c(c3CNc3ccccc3OC)C(C)=CC(C)(C)N4)c(OC)c2)c1` [Compound 1-18, 6-[2-Methoxy-4-(3-methoxycarbonylbenzoyloxy)phenyl]-5-(2-methoxyphenylaminomethyl)-2,2,4-trimethyl-1,2-dihydroquinoline], the figure is 86%.

Values taken from patent publication US8580784B2, “Method for treating a disease related to the glucocorticoid receptor” (Santen Pharmaceutical Co., Ltd., priority 2006, dated 2013).
